Data taken from patent US20020077350A1 (Ashni Naturaceuticals, Inc., priority 2000, published 2002).
“Also recorded” adds a separate entry of the source.

Columns and labels:
[1] = gastrointestinal disturbance, nausea and vomiting, hypotension, edema; cited from earlier work
COX-2 = assay type: cell-based, human; details: Jurkat cells, with and without arachidonic acid or arachidonic acid not specified
Description: COX-2 is inducible in the Jurkat cell by PMA.
Cell plating: The Jurkat cells are propagated in suspension according to the instructions of the supplier. For experimentation, cells are seeded from a log-phase culture at a density of 1×10^5 cells per mL in 100 mm plates, 20 mL per plate, 3 plates per treatment. Serum concentration in the test medium is maintained at 0.5%.
Complete transfers are accomplished in 25-30 minutes at 500 mA. Membranes used for blotting are blocked by incubating in TBS (Tris buffered saline, 50 mM tris, 150 mM NaCl, pH 7.5) containing 5% nonfat dry milk for 30 minutes at room temperature. COX-2 protein is visualized by incubation of the blots with the anti-COX-2 antibody in TBST (0.5% Tween 20 in TBS) for two hours and then a second incubation at room temperature with alkaline phosphatase-conjugated secondary antibody diluted 1:1000 in TBST for two hours. The enzymatic reaction is developed for 15 minutes. The molecular weight of COX-2 is estimated by adding a molecular weight standard to reference lanes and staining the membrane filters with amido black 10B.
Blots are translated into TIFF-formatted files with a Microtech 600GS scanner and quantified using Scan Analysis (BIOSOFT, Cambridge UK). Summary scans are then printed and peak heights are measured directly from the figure. One density unit (Du) is defined as one mm of the resulting peak height.
Appropriate controls receive solvent only. […] Twenty-four hours after treatment, the cells are harvested, lysed and western blotting is done for the determination of COX-2 protein expression.

Row | SMILES | patients showing some type of side effects [1] | inhibition of COX-2 enzyme protein expression (COX-2)
1 | CC(C)[C@]12O[C@H]1[C@@H]1O[C@]13[C@]1(O[C@H]1C[C@H]1C4=C(CC[C@@]13C)C(=O)OC4)[C@@H]2O [Triptolide] | Approximately 28% | 
2 | C=C1CC[C@@H]2[C@](C)(CO)[C@H](O)CC[C@@]2(C)[C@@H]1C/C=C1/C(=O)OC[C@H]1O [Andrographolide] |  | does not inhibit; also recorded: little effect
3 | CC1(C)CC[C@]2(C(=O)O)CC[C@]3(C)C(=CC[C@@H]4[C@@]5(C)CC[C@H](O)C(C)(C)[C@@H]5CC[C@]43C)[C@@H]2C1 [Oleanolic acid] |  | does not inhibit
4 | C[C@H]1[C@H](C)CC[C@]2(C(=O)O)CC[C@]3(C)C(=CC[C@@H]4[C@@]5(C)CC[C@H](O)C(C)(C)[C@@H]5CC[C@]43C)[C@H]12 [Ursolic acid] |  | does not inhibit
